The source made the active and inactive calls. The calls are words filed in the database; no cut-off is given here.
How the values were obtained:
[1] = test system: C6; assay: Cytotoxicity against rat C6 cells assessed as decrease in cell number at 10 uM after 24 hrs by MTT assay; assay type: functional; parameters: scale not given: the % may be the effect or the level left
[2] = test system: C6; assay: Cytotoxicity against rat C6 cells assessed as decrease in cell number at 100 uM after 24 hrs by MTT assay; assay type: functional; parameters: scale not given: the % may be the effect or the level left
[3] = test system: C6; assay: Cytotoxicity against rat C6 cells assessed as cell death at 10 to 100 uM after 48 hrs by MTT assay; assay type: functional, cell-based
[4] = test system: C6; assay: Cytotoxicity against rat C6 cells assessed as decrease in cell number at 100 uM after 48 hrs by MTT assay; assay type: functional; parameters: scale not given: the % may be the effect or the level left
[5] = test system: C6; assay: Growth stimulation of rat C6 cells at 100 uM after 48 hrs by MTT assay relative to control; assay type: functional
[6] = test system: C6; assay: Growth stimulation of rat C6 cells at 100 uM after 24 hrs by MTT assay relative to control; assay type: functional
[7] = test system: C6; assay: Cytotoxicity against rat C6 cells assessed as cell death after 24 to 48 hrs by MTT assay; assay type: functional, cell-based

OC[C@@H]1O[C@H](N2c3ccccc3[C@]3(O)CCO[C@H]23)[C@@H](O)[C@H](O)[C@H]1O
Activity [1]: 92.4% | Activity [2]: 83.9% | Activity [3]: inactive | Activity [4]: 87.9%

O[C@@]12CCO[C@@H]1Nc1ccccc12
Activity [5]: 114.2% | Activity [6]: 112%

OC[C@H]1O[C@@H](N2c3ccccc3[C@]3(O)CCO[C@H]23)[C@H](O)[C@@H](O)[C@@H]1O
Activity [7]: inactive

Reference: ChEMBL document CHEMBL2040830, “Makomotindoline from Makomotake, Zizania latifolia infected with Ustilago esculenta” (2012)
